Reference: patent US11873291B2, “Quinoline cGAS antagonist compounds” (ImmuneSensor Therapeutics, Inc., priority 2020, dated 2024)
Where two headings read alike, the source gives them in different places.

Target: T1, recombinant human cGAS (aa147-522) (Homo sapiens, UniProt Q8N884)
T1 construct: recombinant human cGAS (aa147-522); His6-SUMO (cleaved yes); made in house; host or cells: E. coli BL21/pLys
Assay: In vitro inhibition assay of cGAS activity (ATP consumption, KinaseGlo Max)
Type: biochemical
Summary of the method: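 De-tagged recombinant human cGAS (aa147-522, 1.5 μg/mL) was incubated 20 min at 37 °C with herring testis DNA, 6.6 μM ATP and 0.1 mM GTP in Tris pH 7.5/MgCl2 buffer plus serial compound dilutions. Remaining ATP was read by KinaseGlo Max luminescence, and IC50 was fitted from % ATP consumption versus log concentration.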

[1] = Table 3, read-out: cGAS Inhibition Results IC50
[2] = Table 2, read-out: cGAS Inhibition Results IC50

T1 sequence (Q8N884 147-522): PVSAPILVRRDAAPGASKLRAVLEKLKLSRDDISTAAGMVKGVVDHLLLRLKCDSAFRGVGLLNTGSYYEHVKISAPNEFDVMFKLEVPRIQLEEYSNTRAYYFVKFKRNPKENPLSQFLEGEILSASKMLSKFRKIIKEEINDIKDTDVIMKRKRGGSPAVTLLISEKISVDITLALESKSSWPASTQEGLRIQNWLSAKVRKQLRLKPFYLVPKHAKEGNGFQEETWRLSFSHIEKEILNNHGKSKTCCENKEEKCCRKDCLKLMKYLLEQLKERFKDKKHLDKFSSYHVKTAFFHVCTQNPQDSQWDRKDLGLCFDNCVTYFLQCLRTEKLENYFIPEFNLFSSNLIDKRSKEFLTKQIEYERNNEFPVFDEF

Row | Compound | IC50 [1] | IC50 [2]
1 | Cc1cc(N2CCNC(=O)C2)c2ccc(Cl)c(Cl)c2n1 [I-302] |  | > 30 µM
2 | OC[C@@H]1CCCN1c1cc(-c2cn[nH]c2)nc2c(Cl)c(Cl)ccc12 [I-298] |  | > 30 µM
3 | COc1c(Br)ccc2c(-n3ccnc3)cc(-c3cccc(C(=O)O)c3)nc12 [I-48, 3-(7-Bromo-4-(1H-imidazol-1-yl)-8-methoxyquinolin-2-yl)benzoic acid] |  | < 2 µM
4 | NS(=O)(=O)CCNc1cc(-c2cn[nH]c2)c2ccc(Cl)c(Cl)c2n1 [I-203] |  | < 2 µM
5 | O=C(CO)N1CCN(c2cc(-n3ccnc3)c3ccc(Cl)cc3n2)CC1 [I-77, 1-(4-(7-chloro-4-(1H-imidazol-1-yl)quinolin-2-yl)piperazin-1-yl)-2-hydroxyethan-1-one] |  | > 30 µM
6 | O=[PH](O)OC1CCCN(c2cc(-n3ccnc3)c3ccc(Cl)c(Cl)c3n2)C1 (centres unmarked) [I-111, 1-(7,8-dichloro-4-(1H-imidazol-1-yl)quinolin-2-yl)piperidin-3-yl hydrogen phosphonate] |  | < 2 µM
7 | NS(=O)(=O)c1cccc(-c2cc(-n3ccnc3)c3ccc(Cl)c(Cl)c3n2)c1 [I-46] |  | < 2 µM
8 | OCCNc1cc(-c2cn[nH]c2)nc2c(Cl)c(Cl)ccc12 [I-289, 2-((7,8-dichloro-2-(1H-pyrazol-4-yl)quinolin-4-yl)amino)ethan-1-ol] |  | 2 to 30 µM
9 | O=[PH](O)OCCCCNc1cc(-c2cn[nH]c2)c2ccc(Cl)c(Cl)c2n1 [I-258] |  | < 2 µM
10 | O=C(O)c1cc(-c2cc(-n3ccnc3)c3ccc(Cl)cc3n2)c[nH]1 [I-56, 4-(7-chloro-4-(1H-imidazol-1-yl)quinolin-2-yl)-1H-pyrrole-2-carboxylic acid] |  | 2 to 30 µM
11 | N#CCc1cn(-c2cc(-c3ccccc3)nc3cc(Cl)ccc23)cn1 [I-64] |  | > 30 µM
12 | Cc1cc(N2CCCC(S(N)(=O)=O)C2)c2ccc(Cl)c(Cl)c2n1 (centres unmarked) [I-317] |  | > 30 µM
13 | CN(CCNS(N)(=O)=O)c1cc(-n2ccnc2)c2ccc(Cl)c(Cl)c2n1 [I-223, N-(2-((7,8-dichloro-4-(1H-imidazol-1-yl)quinolin-2-yl)(methyl)amino)ethyl)aminosulfonamide] |  | < 2 µM
14 | O=C(O)C[C@@H](Nc1cc(-n2ccnc2)c2ccc(Cl)c(Cl)c2n1)c1ccccc1 [I-189] |  | 2 to 30 µM
15 | Clc1ccc2c(-c3cn[nH]c3)cc(NCC3COCCN3)nc2c1Cl (centres unmarked) [I-217] |  | > 30 µM
16 | O=C(CO)Nc1cc(C(=O)O)cc(-c2cc(-n3ccnc3)c3ccc(Cl)cc3n2)c1 [I-23, 3-(7-chloro-4-(1H-imidazol-1-yl)quinolin-2-yl)-5-(2-hydroxyacetamido)benzoic acid] |  | < 2 µM
17 | Nc1cc(C(=O)O)cc(-c2cc(-n3ccnc3)c3ccc(Cl)cc3n2)c1 [I-22, 3-amino-5-(7-chloro-4-(1H-imidazol-1-yl)quinolin-2-yl)benzoic acid] |  | < 2 µM
18 | O=C(O)C1CN(c2cc(-n3ccnc3)c3ccc(Cl)c(Cl)c3n2)CCN1 (centres unmarked) [I-79, 4-(7,8-Dichloro-4-(1H-imidazol-1-yl)quinolin-2-yl)piperazine-2-carboxylic acid] |  | < 2 µM
19 | CS(=O)(=O)C1CCCN(c2cc(-n3ccnc3)c3ccc(Cl)cc3n2)C1 (centres unmarked) [I-117] |  | 2 to 30 µM
20 | CC(=O)NCCN(C)c1cc(-n2ccnc2)c2ccc(Cl)cc2n1 [I-236] |  | 2 to 30 µM
21 | O=C(O)C1CCCN(c2cc(-n3ccnc3)c3ccc(Cl)cc3n2)C1 (centres unmarked) [I-122] |  | 2 to 30 µM
22 | O=C(O)c1cc2c(c(-c3cc(-n4ccnc4)c4ccc(Cl)cc4n3)c1)OC(F)(F)O2 [I-38] |  | > 30 µM
23 | O=C(O)[C@@H]1CCCN1C(=O)C[C@@H]1CCCN1c1cc(-c2cn[nH]c2)c2ccc(Cl)c(Cl)c2n1 [I-325] |  | < 2 µM
24 | CN(C)C(=O)CCN(C)c1cc(-c2cn[nH]c2)c2ccc(Cl)c(Cl)c2n1 [I-197] |  | < 2 µM
25 | O=C(O)Cc1cccc(-c2cc(-n3ccnc3)c3ccc(Cl)cc3n2)c1 [I-9] |  | > 30 µM

Further lines, results first:

Row | IC50 [1] | IC50 [2] | Compound
26 | > 30 µM |  | O=c1nc([C@@H]2CCCN2c2cc(-n3ccnc3)c3ccc(Cl)c(Cl)c3n2)o[nH]1 [I-605, (S)-5-(1-(7,8-dichloro-4-(1H-imidazol-1-yl)quinolin-2-yl)pyrrolidin-2-yl)-1,2,4-oxadiazol-3(2H)-one]
27 |  | < 2 µM | O=C(O)[C@@H]1C[C@@H](O)CN1c1cc(-c2cn[nH]c2)c2ccc(Cl)c(Cl)c2n1 [I-433]
28 |  | < 2 µM | O=C(O)[C@H]1CN(c2cc(-c3cn[nH]c3)c3ccc(Cl)c(Cl)c3n2)CCO1 [I-328]
29 |  | > 30 µM | COc1c(Cl)ccc2c(NCCO)cc(-c3cn[nH]c3)nc12 [I-401]
30 | < 2 µM |  | O=C1NCC2CCC1N2c1cc(-n2ccnc2)c2ccc(Cl)c(Cl)c2n1 (centres unmarked) [I-503]
31 | < 2 µM |  | O=C(NO)[C@@H]1[C@@H](O)CCN1c1cc(-n2ccnc2)c2ccc(Cl)c(Cl)c2n1 [I-558]
32 | < 2 µM |  | COC(=O)CNC(=O)C[C@@H]1CCCN1c1cc(-n2ccnc2)c2ccc(Cl)c(Cl)c2n1 [I-531]
33 | < 2 µM |  | O=C(O)CO[C@@H]1CCN(c2cc(-n3ccnc3)c3ccc(Cl)c(Cl)c3n2)C1 [I-766]
34 | < 2 µM |  | O=C(O)c1cccc(S(=O)(=O)N[C@@H]2C[C@@H](C(=O)O)N(c3cc(-n4ccnc4)c4ccc(Cl)c(Cl)c4n3)C2)c1 [I-510]
35 | < 2 µM |  | O=C(O)C1CCN(C(=O)C[C@@H]2CCCN2c2cc(-n3ccnc3)c3ccc(Cl)c(Cl)c3n2)C1 (some centres unmarked) [I-524]
36 |  | 2 to 30 µM | C[C@@H](Nc1cc(-c2cn[nH]c2)c2ccc(Cl)c(Cl)c2n1)C(=O)OC(C)(C)C [I-402]
37 | < 2 µM |  | N[C@@H]1C[C@@H](C(=O)O)N(c2cc(-n3ccnc3)c3ccc(Cl)c(Cl)c3n2)C1 [I-519]
38 | < 2 µM |  | O=C1CC2CCCC(C1)N2c1cc(-n2ccnc2)c2ccc(Cl)c(Cl)c2n1 [I-491]
39 |  | 2 to 30 µM | CC(C)(C)OC(=O)N1CCOC(CNc2cc(-c3cn[nH]c3)c3ccc(Cl)c(Cl)c3n2)C1 (centres unmarked) [I-399]
40 |  | < 2 µM | O=C(O)CNC(=O)C[C@@H]1CCCN1c1cc(-c2cn[nH]c2)c2ccc(Cl)c(Cl)c2n1 [I-326]
41 |  | 2 to 30 µM | O=c1[nH]c(=O)c2ccc(S(=O)(=O)NC[C@@H]3CCCN3c3cc(-n4ccnc4)c4ccc(Cl)c(Cl)c4n3)cc2[nH]1 [I-392]
42 | 2 to 30 µM |  | CC(C)N(CCCOc1ccc(Cl)cc1C(=O)O)c1cc(-n2ccnc2)c2ccc(Cl)c(Cl)c2n1 [I-848, 5-chloro-2-(3-((7,8-dichloro-4-(1H-imidazol-1-yl)quinolin-2-yl)(isopropyl)amino)propoxy) benzoic acid]

Row | IC50 [1] | IC50 [2] | Compound
43 | 2 to 30 µM |  | CC(C)(C)OC(=O)[C@@H]1CCCN1c1cc(-n2ccnc2)c2ccc(Cl)c(Cl)c2n1 [I-644]
44 |  | 2 to 30 µM | Brc1ccc2c(-n3ccnc3)ccnc2c1 [I-412]
45 |  | < 2 µM | CS(=O)(=O)N(CCCc1cc(-c2cn[nH]c2)c2ccc(Cl)c(Cl)c2n1)CC(=O)O [I-337, N-(3-(7,8-dichloro-4-(1H-pyrazol-4-yl)quinolin-2-yl)propyl)-N-(methylsulfonyl) glycine]
46 | > 30 µM |  | O=C(O)CCOC[C@@H]1CCCN1c1cc(-n2ccnc2)c2ccc(Cl)c(-c3ccccc3)c2n1 [I-863, (S)-3-((1-(7-chloro-4-(1H-imidazol-1-yl)-8-phenylquinolin-2-yl)pyrrolidin-2-yl)methoxy)propanoic acid]
47 |  | < 2 µM | CN(CCC(=O)N1CCC[C@H]1C(=O)O)c1cc(-c2cn[nH]c2)c2ccc(Cl)c(Cl)c2n1 [I-389]
48 |  | < 2 µM | O=C(C[C@@H]1CCCN1c1cc(-c2cn[nH]c2)c2ccc(Cl)c(Cl)c2n1)N1CCC[C@H]1CO [I-454]
49 |  | > 30 µM | O=C1CC[C@@H](CO)N1c1cc(-n2ccnc2)c2ccc(Cl)c(Cl)c2n1 [I-376]
50 |  | 2 to 30 µM | CC(=O)OCC(=O)NC1CCCN(c2cc(-n3ccnc3)c3ccc(Cl)cc3n2)C1 (centres unmarked) [I-395, 2-((1-(7-chloro-4-(1H-imidazol-1-yl)quinolin-2-yl)piperidin-3-yl)amino)-2-oxoethyl acetate]
51 | 2 to 30 µM |  | COC(=O)CCN(CCC(=O)OC)C[C@@H]1CCCN1c1cc(-n2ccnc2)c2ccc(Cl)c(Cl)c2n1 [I-757, dimethyl 3,3′-(((1-(7,8-dichloro-4-(1H-imidazol-1-yl)quinolin-2-yl)pyrrolidin-2-yl)methyl)azanediyl)(S)-dipropionate]
52 | 2 to 30 µM |  | O=C(O)C12CC1CCN2c1cc(-n2ccnc2)c2ccc(Cl)c(Cl)c2n1 (centres unmarked) [I-505]
53 | 2 to 30 µM |  | NC(=O)CCNC(=O)[C@@H]1CCCN1c1cc(-n2ccnc2)c2ccc(Cl)c(Cl)c2n1 [I-554]
54 | < 2 µM |  | O=C(O)c1ccnn1C[C@@H]1CCCN1c1cc(-n2ccnc2)c2ccc(Cl)c(Cl)c2n1 [I-727, (S)-1-((1-(7,8-dichloro-4-(1H-imidazol-1-yl)quinolin-2-yl)pyrrolidin-2-yl)methyl)-1H-pyrazole-5-carboxylic acid]
55 | < 2 µM |  | O=C(O)[C@@H]1CCCN1C(=O)[C@@H]1CCCN1c1cc(-n2ccnc2)c2ccc(Cl)c(Cl)c2n1 [I-552]
56 |  | 2 to 30 µM | O=C(O)C1CCCN(c2cc(-n3ccnc3)c3ccc(Cl)cc3n2)CC1 (centres unmarked) [I-363]
57 |  | 2 to 30 µM | O=C(O)[C@@H]1C[C@@H](OCc2ccccc2)CN1c1cc(-c2cn[nH]c2)c2ccc(Cl)c(Cl)c2n1 [I-438]
58 |  | 2 to 30 µM | Cc1c(Cl)ccc2c(-n3ccnc3)ccnc12 [I-421, 7-chloro-4-(1H-imidazol-1-yl)-8-methylquinoline]
59 | < 2 µM |  | O=C(O)[C@@H]1C[C@H](F)CN1c1cc(-n2ccnc2)c2ccc(Cl)c(Cl)c2n1 [I-466]
